Experimental data from article PMC10126264, “Synergistic effect and antibiofilm activity of the antimicrobial peptide K11 with conventional antibiotics against multidrug-resistant and extensively drug-resistant Klebsiella pneumoniae” (Frontiers in Cellular and Infection Microbiology, 2023).
Where two headings read alike, the source gives them in different places. Residues, ends and D or L forms follow the SMILES beside them.

Tests used:
K. pneumoniae ATCC 70063 [1] = tested on: K. pneumoniae ATCC 70063
Method: (§1) The temperature and pH stabilities of K11 were evaluated by the MIC assay, as mentioned above. To assess the thermal stability, Aliquots of 2 mg/mL of K11 in sterile deionized water were incubated for 1 h at 25°C, 37°C, 50°C, 70°C, and 90°C. Then, a series of 2-fold dilutions of K11 were prepared in CAMHB, 50 µL of each peptide solution was transferred to the well of a 96-well microplate. An equal volume of K. pneumoniae ATCC 70063 or K. pneumoniae ATCC BAA-1706 (10^6 CFU/mL) suspension was added, and the mixture was incubated at 37°C for 20-24 h ([Li et al., 2021]). To examine the pH stability, the pH was adjusted to range from 2.0 to 10.0 with the following 100 mM buffers: glycine-HCl buffer (pH 2.0), sodium acetate buffer (pH 4.0), sodium phosphate buffer (pH 6.0), Tris-HCl buffer (pH 8.0), and glycine-NaOH buffer (pH 10.0). Then, 2 mg/mL of K11 was prepared in buffers with different pH values (pH 2.0-10.0) and incubated for 1 h at 37°C. Afterward, the pH of the reaction solution was neutralized by HCl or NaOH to terminate the reaction. The serially diluted peptide solutions were conducted, then treated against the tested strains, and the mixtures were incubated at 37°C for 20-24 h ([Cao et al., 2015]; [Zong et al., 2016]). The MICs were observed.

[2] = tested on: K. pneumoniae ATCC BAA-1706
Method: as §1

K. pneumoniae ATCC 70063 [3] = tested on: K. pneumoniae ATCC 70063; remark: listed apart in the source
Method: The effects of various cations and serum on the antimicrobial activity of K11 were investigated against K. pneumoniae ATCC 70063 and K. pneumoniae ATCC BAA-1706 by the MIC assay, as described above. […] Subsequently, serially 2-fold diluted K11 solutions were prepared in CAMHB, and aliquots of each peptide solution were added to a 96-well plate. An equal volume of bacterial suspension was added, and the mixtures were incubated at 37°C for 20-24 h ([Ko et al., 2019]). For serum stability, 2 mg/mL of K11 was prepared in solution with 25% and 50% FBS and incubated for 1 h at 37°C, then heat […] for 30 min at 60°C. A series of 2-fold dilutions of K11 were performed in CAMHB and transferred to a 96-well plate. The diluted bacterial suspension was added to the well, and mixtures were incubated for 20-24 h at 37°C ([Oliva et al., 2018]). The antimicrobial activity was determined by measuring the MICs.

[4] = K11 2 mg/mL in 100 mM Tris-HCl buffer pH 8.0, 1 h at 37°C, neutralized, then MIC
[5] = K11 2 mg/mL in 100 mM glycine-HCl buffer pH 2.0, 1 h at 37°C, neutralized, then MIC
[6] = K11 2 mg/mL in 100 mM glycine-NaOH buffer pH 10.0, 1 h at 37°C, neutralized, then MIC
[7] = K11 2 mg/mL in 100 mM sodium acetate buffer pH 4.0, 1 h at 37°C, neutralized, then MIC
[8] = K11 2 mg/mL in 100 mM sodium phosphate buffer pH 6.0, 1 h at 37°C, neutralized, then MIC
[9] = K11 2 mg/mL in sterile deionized water incubated 1 h at 25°C (control), then MIC in CAMHB
[10] = K11 2 mg/mL in sterile deionized water incubated 1 h at 37°C, then MIC in CAMHB
[11] = K11 2 mg/mL in sterile deionized water incubated 1 h at 50°C, then MIC in CAMHB
[12] = K11 2 mg/mL in sterile deionized water incubated 1 h at 70°C, then MIC in CAMHB
[13] = K11 2 mg/mL in sterile deionized water incubated 1 h at 90°C, then MIC in CAMHB

## CC[C@H](C)[C@H](NC(=O)[C@H](Cc1ccccc1)NC(=O)[C@H](CO)NC(=O)[C@H](CCCCN)NC(=O)[C@H](Cc1c[nH]c2ccccc12)NC(=O)[C@@H](N)CCCCN)C(=O)N[C@@H](CCCCN)C(=O)N[C@@H](CCCCN)C(=O)N[C@@H](CC(C)C)C(=O)N[C@H](C(=O)N[C@@H](CCCCN)C(=O)N[C@@H](CCCCN)C(=O)N[C@@H](Cc1ccccc1)C(=O)N[C@@H](CC(C)C)C(=O)N[C@@H](Cc1c[nH]cn1)C(=O)N[C@@H](CO)C(=O)N[C@@H](C)C(=O)N[C@@H](CCCCN)C(=O)N[C@@H](CCCCN)C(=O)N[C@@H](Cc1ccccc1)C(N)=O)[C@@H](C)O [K11] (H-KWKSFIKKLTKKFLHSAKKF-NH2)
K. pneumoniae ATCC 70063 [1]; [4]
  Antimicrobial activity MIC: 4 µg/mL
K. pneumoniae ATCC 70063 [1]; [5]
  Antimicrobial activity MIC: 4 µg/mL
K. pneumoniae ATCC 70063 [1]; [6]
  Antimicrobial activity MIC: 4 µg/mL
K. pneumoniae ATCC 70063 [1]; [7]
  Antimicrobial activity MIC: 4 µg/mL
K. pneumoniae ATCC 70063 [1]; [8]
  Antimicrobial activity MIC: 4 µg/mL
K. pneumoniae ATCC 70063 [1]; [9]
  Antimicrobial activity MIC: 4 µg/mL
K. pneumoniae ATCC 70063 [1]; [10]
  Antimicrobial activity MIC: 4 µg/mL
K. pneumoniae ATCC 70063 [1]; [11]
  Antimicrobial activity MIC: 4 µg/mL
K. pneumoniae ATCC 70063 [1]; [12]
  Antimicrobial activity MIC: 4 µg/mL
K. pneumoniae ATCC 70063 [1]; [13]
  Antimicrobial activity MIC: 4 µg/mL
K. pneumoniae ATCC 70063 [1]; pH 7 (control)
  Antimicrobial activity MIC: 4 µg/mL
[2]; [4]
  Antimicrobial activity MIC: 2 µg/mL
[2]; [5]
  Antimicrobial activity MIC: 2 µg/mL
[2]; [6]
  Antimicrobial activity MIC: 2 µg/mL
[2]; [7]
  Antimicrobial activity MIC: 2 µg/mL
[2]; [8]
  Antimicrobial activity MIC: 2 µg/mL
[2]; [9]
  Antimicrobial activity MIC: 2 µg/mL
[2]; [10]
  Antimicrobial activity MIC: 2 µg/mL
[2]; [11]
  Antimicrobial activity MIC: 2 µg/mL
[2]; [12]
  Antimicrobial activity MIC: 2 µg/mL
[2]; [13]
  Antimicrobial activity MIC: 2 µg/mL
[2]; pH 7 (control)
  Antimicrobial activity MIC: 2 µg/mL
K. pneumoniae ATCC 70063 [3]; Control, salt concentration 0
  Antimicrobial activity MIC: 4 µg/mL
K. pneumoniae ATCC 70063 [3]; K11 2 mg/mL in FeCl3 1 µM, 1 h at 37°C, then MIC in CAMHB
  Antimicrobial activity MIC: 4 µg/mL
K. pneumoniae ATCC 70063 [3]; K11 2 mg/mL in FeCl3 4 µM, 1 h at 37°C, then MIC in CAMHB
  Antimicrobial activity MIC: 4 µg/mL
K. pneumoniae ATCC 70063 [3]; K11 2 mg/mL in FeCl3 8 µM, 1 h at 37°C, then MIC in CAMHB
  Antimicrobial activity MIC: 4 µg/mL
K. pneumoniae ATCC 70063 [3]; K11 2 mg/mL in MgCl2 0.5 mM, 1 h at 37°C, then MIC in CAMHB
  Antimicrobial activity MIC: 4 µg/mL
K. pneumoniae ATCC 70063 [3]; K11 2 mg/mL in MgCl2 1 mM, 1 h at 37°C, then MIC in CAMHB
  Antimicrobial activity MIC: 4 µg/mL
K. pneumoniae ATCC 70063 [3]; K11 2 mg/mL in MgCl2 2 mM, 1 h at 37°C, then MIC in CAMHB
  Antimicrobial activity MIC: 8 µg/mL
K. pneumoniae ATCC 70063 [3]; K11 2 mg/mL in NaCl 100 mM, 1 h at 37°C, then MIC in CAMHB
  Antimicrobial activity MIC: 4 µg/mL
K. pneumoniae ATCC 70063 [3]; K11 2 mg/mL in NaCl 150 mM, 1 h at 37°C, then MIC in CAMHB
  Antimicrobial activity MIC: 4 µg/mL
K. pneumoniae ATCC 70063 [3]; K11 2 mg/mL in NaCl 200 mM, 1 h at 37°C, then MIC in CAMHB
  Antimicrobial activity MIC: 4 µg/mL
